Measurements from US8957093B2, “N-biphenylmethylindole modulators of PPARG” (The Scripps Research Institute, priority 2011, dated 2015).

Key:
[1] = test system: MC3T3-E1 cells; test: Mineralization of osteoblastic cells (Alizarin red S staining, osteoblast gene expression); type: cell-based, mouse
Excerpt: Moreover, the expression of genes involved in the differentiation of these cells was impaired (alkaline phosphatase, RANKL, type I collagen).

[2] = test system: differentiated fat cells; test: cdk5-mediated phosphorylation of PPARG in differentiated fat cells; type: cell-based
Excerpt: (§1) In order to develop a suitable ligand, we optimized compounds for (i) high binding affinity for PPARG, (ii) blocking the cdk5-mediated PPARG phosphorylation and (iii) lacking classical agonism. Classical agonism is defined here, as is standard in the nuclear receptor field, as an increased level of transcription through a tandem PPAR response element luciferase reporter (PPRE::Luc).

[3] = test system: obese, insulin-resistant mice; test: Wild-type mice fed a calorie dense diet high in sugar and fat (obese, insulin-resistant)
[4] = test system: pre-adipose cell lines; test: Fat cell differentiation (Oil Red O staining, adipogenic gene expression); type: cell-based
[5] = test system: RAW264.7 cells; test: Inflammatory cytokine production in LPS stimulated RAW264.7 cells; type: cell-based
[6] = Pharmacokinetic properties; conditions: in vivo
[7] = target: Rb protein (cdk5 substrate) (Homo sapiens (Human), UniProt Q00535); test: cdk5 phosphorylation of Rb protein in vitro (Western blot); type: biochemical
Excerpt: as §1

[8] = test system: PPARG (murine PPARg2 or full-length human PPARG, 3xPPRE-luciferase reporter); test: Cell-based PPRE-luciferase transactivation assay in COS-1 cells; conditions: compared to rosiglitazone or MRL24
[9] = test system: ob/ob mouse; test: Leptin-deficient ob/ob mouse model; conditions: ob/ob mice
Protocol: A more severe model of obesity is the leptin-deficient ob/ob mouse. These animals are very obese and insulin-resistant, with substantial compensatory hyperinsulinemia. […] Functional analyses were performed at days 5 and 11 after the start of treatments.
Longer treatments with these drugs allowed an assessment of certain side effects.

[10] = test system: obese, insulin-resistant mice; test: Hyperinsulinemic-euglycemic clamp in obese mice; type: in vivo, mouse
Excerpt: The most accurate method for measuring changes in insulin sensitivity is the hyperinsulinemic-euglycemic clamp (DeFronzo et al., 1979). In this method, animals are exposed to an elevated concentration of insulin while the amount of glucose infused is adjusted in real time to maintain fixed, or clamped glycemia.

[11] = injected twice daily for 5 days

Cc1c(C)n(Cc2ccc(-c3ccccc3C(=O)O)cc2)c2ccc(C(=O)N[C@@H](C)c3ccc([N+](=O)[O-])cc3)cc12 [SR1664]
expression of osteoblast differentiation genes (alkaline phosphatase, RANKL, type I collagen) [1]: did not affect | mineralization (calcification) ([1]; Alizarin red S staining): did not affect | blocking cdk5-mediated phosphorylation of PPARG in differentiated fat cells [2]: effective at blocking | body weight compared to vehicle treated mice [3, 11]: without significant differences | cdk5-mediated phosphorylation of PPARG at serine 273 in adipose tissue [3, 11]: dose-dependent decrease | fasting insulin levels [3, 11]: significant reduction | glucose levels [3, 11]: trend toward lowered (and normalized) glucose levels | insulin resistance as computed by HOMA-IR [3, 11]: clear and dose-dependent improvement | expression of adiponectin and adipsin ([3]; mouse, in vivo): induced | fat cell differentiation / lipid accumulation ([4]; Oil Red O staining): did not stimulate increased lipid accumulation or changes in morphology | expression of aP2, C/EBPα and Glut4 ([4]; genes linked to adipogenesis): little or no change | production of inflammatory cytokines [5]: inhibition of production of inflammatory cytokines | pharmacokinetic properties [6]: adequate | effect on cdk5 phosphorylation of the Rb protein [7]: no effect | transcriptional agonism on tandem PPRE::Luc reporter [8]: essentially no transcriptional agonism at any concentration | glucose tolerance test [9]: markedly improved | insulin levels ([9]; after five days of treatment): substantially reduced | fasting glucose levels ([9]; after five days of treatment, vehicle 110±13): 90 ± 12 mg/dL | body fat / adiposity by MRI ([9]; longer treatment): no decrease in the hematocrit or change in body adiposity | hematocrit (fluid retention) ([9]; longer treatment): no decrease | body weight ([9]; longer treatment (11 days)): did not cause the weight gain | plasma FFA ([10]; basal and clamped conditions): reduction | glucose uptake in the adipose tissue ([10]; clamp): significantly enhanced | suppression of endogenous hepatic glucose production (EGP) ([10]; clamp): increased | whole body glucose utilization ([10]; clamp): not increased | glucose infusion rate (GIR) needed to maintain euglycemia ([10]; versus vehicle alone): significantly greater
